Results from patent US20110070357A1, “Apparatus and Methods for Loading a Drug Eluting Medical Device” (Medtronic Vascular, Inc., priority 2009, published 2011).

Test: solubility of sirolimus in solvents / dispersion media
Type: physicochemical
Protocol: Solution 524 is a homogeneous mixture in which therapeutic substance 112 dissolves within a solvent or a solvent mixture. In one embodiment, solution 524 includes a high-capacity solvent 528 which is an organic solvent that has a high capacity to dissolve therapeutic substance 112. High capacity as utilized herein is defined as an ability to dissolve therapeutic substance 112 at concentrations greater than 500 mg of substance per milliliter of solvent. Examples of high capacity drug dissolving solvents for sirolimus and similar substances include but are not limited to tetrahydrofuran (THF), di-chloromethane (DCM), chloroform, and di-methyl-sulfoxide (DMSO). In addition to the high-capacity solvent, solution 524 may include an excipient 526 in order to assist in drug elution. In one embodiment, excipient 526 may be a surfactant such as but not limited to sorbitan fatty acid esters such as sorbitan monooleate and sorbitan monolaurate, polysorbates such as polysorbate 20, polysorbate 60, and polysorbate 80, cyclodextrins such as 2-hydroxypropyl-beta-cyclodextrin and 2,6-di-O-methyl-beta-cyclodextrin, sodium dodecyl sulfate, octyl glucoside, and low molecular weight poly(ethylene glycol)s. In another embodiment, excipient 526 may be a hydrophilic agent such as but not limited to salts such as sodium chloride and other materials such as urea, citric acid, and ascorbic acid. […]

- solubility in hexane (hexane): insoluble in hexane
- solubility in water (water): insoluble in water
SMILES: CO[C@H]1C[C@@H]2CC[C@@H](C)[C@@](O)(O2)C(=O)C(=O)N2CCCC[C@H]2C(=O)O[C@H]([C@H](C)C[C@@H]2CC[C@@H](O)[C@H](OC)C2)CC(=O)[C@H](C)/C=C(\C)[C@@H](O)[C@@H](OC)C(=O)[C@H](C)C[C@H](C)/C=C/C=C/C=C/1C [sirolimus]
